The results in this text go back to patent US20240246941A1, “SUBSTITUTED 4-(3-AMINOPROP-1-YL)AMINOQUINOLINE ANALOGS AS MODULATORS OF MELANOMA-ASSOCIATED ANTIGEN 11 UBIQUITIN LIGASE” (ST. JUDE CHILDREN'S RESEARCH HOSPITAL, INC., priority 2020, published 2024).

In this experiment the target is MAGE-A11:PCF11 (Homo sapiens (Human), UniProt P43364). Briefly: TR-FRET single point screening at 15 μM. Type of experiment: binding. Also noted: unit not given here. The method, boiled down: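 Competition TR-FRET: compounds at final 15 μM mixed with 200 nM FAM-PCF11_4, 5 nM GST-MAGEA11 and 5 nM Tb-anti-GST in Tris pH 7.5/MgCl2/BSA/DTT buffer, room temperature, 90 min. Emission ratio 520/490 nm (340 nm excitation) expressed as % inhibition relative to positive and negative controls.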

Setting [1] is: single point TR-FRET screening at 15 μM against MAGE-A11:PCF11.
Where [2] appears, read: single point TR-FRET screening of quinoline compounds against MAGE-A11:PCF11, 15 μM.

SMILES strings stand for the structures.

MAGE-A11:PCF11, sequence (P43364 218-429): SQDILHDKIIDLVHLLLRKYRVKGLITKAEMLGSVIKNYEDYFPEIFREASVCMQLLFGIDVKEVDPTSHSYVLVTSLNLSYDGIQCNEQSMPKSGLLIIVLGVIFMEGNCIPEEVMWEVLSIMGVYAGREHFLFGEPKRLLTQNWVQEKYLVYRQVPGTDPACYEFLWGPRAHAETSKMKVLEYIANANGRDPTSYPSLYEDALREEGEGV

As for `CCc1ccc2ncc(S(=O)(=O)c3ccc(C)c(C)c3)c(N3CCN(CC)CC3)c2c1` [SJ000247334], the TR-FRET signal under setting [1] is −4.712. The same measure, in the same setting: as for `CCN1CCN(c2c(S(=O)(=O)c3ccc(C)c(C)c3)cnc3ccc(OC)cc23)CC1` [SJ000247335], the figure is −4.579. Still for that read-out and setting: as for `CN1CCN(c2c(C(=O)c3ccccc3)cnc3ccc(Cl)cc23)CC1` [SJ000247338], the figure is −5.573; as for `CCOc1ccc(C(=O)c2cnc3ccc(C)cc3c2N2CCN(CC)CC2)cc1` [SJ000247339], −10.81. Same read-out and setting: as for `Cc1ccc(S(=O)(=O)c2cnc3ccc(F)cc3c2N2CCN(C)CC2)cc1C` [SJ000247344], the figure is −7.627.

Regarding `CCN1CCN(c2c(S(=O)(=O)c3ccc(C)c(C)c3)cnc3ccc(F)cc23)CC1` [SJ000247345], the TR-FRET signal under setting [1] is given as 1.118. The same measure, in the same setting: under `CCOc1ccc2ncc(S(=O)(=O)c3ccc(C)c(C)c3)c(N3CCN(C)CC3)c2c1` [SJ000247354] stands −14.05; under `CCOc1ccc2ncc(S(=O)(=O)c3ccc(C)c(C)c3)c(N3CCN(CC)CC3)c2c1` [SJ000247355], −13.39. Still for that read-out and setting: as for `CCN1CCN(c2c(C(=O)c3ccccc3)cnc3ccc(OC)cc23)CC1` [SJ000247365], the figure is −0.2733; as for `CCN1CCN(c2c(S(=O)(=O)c3ccc(Cl)cc3)cnc3ccccc23)CC1` [SJ000247367], −2.261; as for `CCc1ccc(S(=O)(=O)c2cnc3ccccc3c2N2CCN(C)CC2)cc1` [SJ000278939], 11.58.

As for `CCOC(=O)c1cnc2c(Cl)cccc2c1NCCCN1CCOCC1` [SJ000279431], under setting [2], the TR-FRET signal stood at 4.102. As for `CCOC(=O)c1cnc2ccc(OC)cc2c1N1CCN(C)CC1` [SJ000279507], the TR-FRET signal under setting [1] is −2.791.

`CCOC(=O)c1cnc2ccc(OCC)cc2c1NCCCN1CCOCC1.Cl` [SJ000279525] had a TR-FRET signal under setting [2] of 5.532. Take `CCOC(=O)c1cnc2ccc(OCC)cc2c1N1CCN(C)CC1` [SJ000279526]: the TR-FRET signal under setting [1] is on record as −7.064.

The compound `CCOC(=O)c1cnc2c(C)cccc2c1NCCCN1CCOCC1` [SJ000279636] had a TR-FRET signal under setting [2] of 3.353. On the same count and under the same terms, as for `CCOC(=O)c1cnc2ccc(C(=O)OC)cc2c1NCCCN1CCOCC1` [SJ000279665], the figure is 10.71. `CCOC(=O)c1cnc2c(CC)cccc2c1NCCN1CCOCC1` [SJ000279714] gave a TR-FRET signal under setting [1] of −6.103. `CCOC(=O)c1cnc2ccc(F)cc2c1NCCCN1CCOCC1` [SJ000279864]: the TR-FRET signal under setting [2] is listed as −0.3915. Compound `CCOC(=O)c1cnc2ccc(C(=O)O)cc2c1N1CCN(CCO)CC1` [SJ000280902] registered a TR-FRET signal under setting [1] of −0.5958. Same read-out and setting: as for `CCOC(=O)c1cnc2c(C(F)(F)F)cccc2c1NCCN1CCOCC1` [SJ000281260], the figure is 0.8341. On the same count and under the same terms, under `CCN(CC)CCCC(C)Nc1ccnc2cc(Cl)ccc12` (centres unmarked) [SJ000285185] stands −2.592; under `CCN(CC)CCCC(C)Nc1c2ccc(Cl)cc2nc2ccc(OC)cc12` (centres unmarked) [SJ000285202], −265.7. Same read-out and setting: as for `CCN(CCO)CCCC(C)Nc1ccnc2cc(Cl)ccc12` (centres unmarked) [SJ000286026], the figure is 3.702; as for `Clc1ccc2c(NC3CCN(Cc4ccc(Cl)o4)CC3)ccnc2c1` [SJ000311180], 0.6827; as for `Oc1ccc(Br)cc1CN1CCC(Nc2ccnc3cc(Cl)ccc23)CC1` [SJ000311181], −1.209.

In the case of `Clc1ccc2c(NCCCN(Cc3ccccc3)CC3CC=CCC3)ccnc2c1` (centres unmarked) [SJ000311182], the TR-FRET signal under setting [2] came to 16.09. Still for that read-out and setting: as for `CC(C)CCN(CCCNc1ccnc2cc(Cl)ccc12)Cc1ccccc1` [SJ000311183], the figure is 2.673; as for `CC(CCN(CCCNc1ccnc2cc(Cl)ccc12)Cc1ccccc1)c1ccccc1` (centres unmarked) [SJ000311184], 17.35. Still for that read-out and setting: under `Cc1ccsc1CNCCCNc1ccnc2cc(Cl)ccc12` [SJ000311189] stands 6.554; under `Cc1ccc(CNCCCNc2ccnc3cc(Cl)ccc23)s1` [SJ000311190], 10.83.

Take `CCCN(CCCNc1ccnc2cc(Cl)ccc12)Cc1ccc(Br)o1` [SJ000311195]: the TR-FRET signal under setting [2] worked out at 14.48. Regarding `CCCN(CCCCNc1ccnc2cc(Cl)ccc12)CCCSC` [SJ000311197], the TR-FRET signal under setting [1] turned out to be 3.903.

Consider `CCCN(CCCCNc1ccnc2cc(Cl)ccc12)Cc1ccc[nH]1` [SJ000311198], for which the TR-FRET signal under setting [1] is −0.9977. Still for that read-out and setting: as for `CCCN(CCCCNc1ccnc2cc(Cl)ccc12)Cc1sccc1C` [SJ000311199], the figure is 6.494; as for `CCCN(CCCCNc1ccnc2cc(Cl)ccc12)Cc1ccoc1` [SJ000311200], 12.31; as for `CCCN(CCCCNc1ccnc2cc(Cl)ccc12)Cc1cc(F)ccc1OC` [SJ000311202], 5.396. Take `CCCN(CCCCNc1ccnc2cc(Cl)ccc12)Cc1c(F)cccc1OC` [SJ000311203]: the TR-FRET signal under setting [1] is 6.844.

On to `CCCN(CCCCNc1ccnc2cc(Cl)ccc12)Cc1c[nH]c2ccccc12` [SJ000311204], for which, under setting [1], the TR-FRET signal is −3.378. Still for that read-out and setting: under `CCCN(CCCCNc1ccnc2cc(Cl)ccc12)Cc1ccccc1` [SJ000311205] stands 7.684. `c1ccc(Oc2ccc3c(NCCCNCc4ccco4)ccnc3c2)cc1` [SJ000311206]: the TR-FRET signal under setting [2] was 14.59.

Regarding `COc1ccccc1Oc1ccc2c(NCCCNCc3ccco3)ccnc2c1` [SJ000311210], the TR-FRET signal under setting [2] was 24.56. Compound `COc1cccc(Oc2ccc3c(NCCCNCc4ccco4)ccnc3c2)c1` [SJ000311214] yielded a TR-FRET signal under setting [2] of 29.11. On the same count and under the same terms, as for `COc1ccc(Oc2ccc3c(NCCCNCc4ccco4)ccnc3c2)cc1` [SJ000311218], the figure is 36.25; as for `Fc1ccc(Oc2ccc3c(NCCCNCc4ccco4)ccnc3c2)cc1` [SJ000311222], 9.365; as for `Clc1ccc(Oc2ccc3c(NCCCNCc4ccco4)ccnc3c2)cc1` [SJ000311226], 37.65. Still for that read-out and setting: under `CN(C)c1cccc(Oc2ccc3c(NCCCNCc4ccco4)ccnc3c2)c1` [SJ000311230] stands 63.42; under `CC(C)(C)c1ccc(Oc2ccc3c(NCCCNCc4ccco4)ccnc3c2)cc1` [SJ000311234], 57.54. Turning to `Fc1ccc(-c2ccc3c(NCCCNCc4ccco4)ccnc3c2)cc1` [SJ000311238], the TR-FRET signal under setting [2] is given as 27.43.

For the compound `CC(C)CCc1ccc2c(NCCCNCc3ccco3)ccnc2c1` [SJ000311246], the TR-FRET signal under setting [2] was found to be 13.01.

Turning to `c1coc(CNCCCNc2ccnc3cc(CC4CCCCC4)ccc23)c1` [SJ000311250], under setting [2], the TR-FRET signal came to 40.66. For `c1ccc(CCc2ccc3c(NCCCNCc4ccco4)ccnc3c2)cc1` [SJ000311254], under setting [2], the TR-FRET signal is listed as 15.95. Under setting [2], `CC(C)Cc1ccc2c(NCCCNCc3ccco3)ccnc2c1` [SJ000311258] returned a TR-FRET signal of 8.874.

As for `c1coc(CNCCCNc2ccnc3cc(C4CCCCC4)ccc23)c1` [SJ000311262], the TR-FRET signal under setting [2] was found to be 32.96.

`CCC(CC)c1ccc2c(NCCCNCc3ccco3)ccnc2c1` [SJ000311266] displayed a TR-FRET signal under setting [2] of 24.56. On the same count and under the same terms, as for `FC(F)(F)c1cc(-c2ccc3c(NCCCNCc4ccco4)ccnc3c2)cc(C(F)(F)F)c1` [SJ000311270], the figure is 59.71; as for `c1coc(CNCCCNc2ccnc3cc(-c4cccc5ccccc45)ccc23)c1` [SJ000311274], 41.57; as for `FC(F)(F)c1ccc(-c2ccc3c(NCCCNCc4ccco4)ccnc3c2)cc1` [SJ000311278], 56.21. Consider `c1ccc(-c2ccc3c(NCCCNCc4ccco4)ccnc3c2)cc1` [SJ000311282], for which the TR-FRET signal under setting [2] was determined as 28.69. In the case of `CC(C)(C)c1ccc(-c2ccc3c(NCCCNCc4ccco4)ccnc3c2)cc1` [SJ000311286], under setting [2], the TR-FRET signal came out at 73.5. On to `c1coc(CNCCCNc2ccnc3cc(-c4ccc5c(c4)OCO5)ccc23)c1` [SJ000311290], for which, under setting [2], the TR-FRET signal is recorded as 30.79. The same measure, in the same setting: under `COc1ccc(-c2ccc3c(NCCCNCc4ccco4)ccnc3c2)cc1` [SJ000311294] stands 7.824.

Compound `FC(F)(F)c1cccc(Cc2ccc3c(NCCCNCc4ccco4)ccnc3c2)c1` [SJ000311298] displayed a TR-FRET signal under setting [2] of 27.01.

For `N#Cc1ccc(Cc2ccc3c(NCCCNCc4ccco4)ccnc3c2)cc1` [SJ000311302], the TR-FRET signal under setting [2] was 20.43.

Regarding `c1ccc(Cc2ccc3c(NCCCNCc4ccco4)ccnc3c2)cc1` [SJ000311306], under setting [2], the TR-FRET signal amounted to 64.54. `COc1cc(Cc2ccc3c(NCCCNCc4ccco4)ccnc3c2)cc(OC)c1` [SJ000311310] had a TR-FRET signal under setting [2] of 23.79. Still for that read-out and setting: under `Clc1cccc(Cl)c1Cc1ccc2c(NCCCNCc3ccco3)ccnc2c1` [SJ000311314] stands 32.4.

`Cc1cc(C)cc(Cc2ccc3c(NCCCNCc4ccco4)ccnc3c2)c1` [SJ000311318] displayed a TR-FRET signal under setting [2] of 39.31. Still for that read-out and setting: under `Fc1ccc(Cc2ccc3c(NCCCNCc4ccco4)ccnc3c2)c(Cl)c1` [SJ000311322] stands 24.77; under `Cc1ccc(CNCCCNc2ccnc3cc(Cl)ccc23)o1` [SJ000311326], 10.2.

Under setting [2], `Clc1ccc2c(NCCCN(Cc3ccccc3)Cc3ccco3)ccnc2c1` [SJ000312668] returned a TR-FRET signal of 0.5217. In the case of `Cc1ccc(CN(CCCNc2ccnc3cc(Cl)ccc23)Cc2ccccc2)o1` [SJ000312669], the TR-FRET signal under setting [2] was determined as 2.84. Still for that read-out and setting: as for `Clc1ccc2c(NCCCN(Cc3ccccc3)Cc3ccc(Br)o3)ccnc2c1` [SJ000312671], the figure is −1.797; as for `Clc1ccc2c(NCCCN(Cc3ccccc3)Cc3cccs3)ccnc2c1` [SJ000312672], 4.744.
